These results are taken from US20200054594A1 (priority 2017, published 2020).

Data set [1] relates to incision pain in rats. Put plainly: Incision pain test in rats, mechanical pain threshold by Electronic Von Frey. The class given is in vivo, male Wistar rats.
The test system of data set [2] is rats. In words: Toxic effects / adverse reactions observed during the rat incision pain study. The class given is in vivo, male Wistar rats. The following applies: single agents, i.v. The procedure:
The rats were randomly divided into the following groups according to the body weight: blank control group (n=8), model group (n=8) and drug-administered group (n=48). The drug-administered group was divided into the following groups: compound 19-0.1 mg/kg group (n=8), compound 19-0.3 mg/kg group (n=8), compound 19-0.03 mg/kg+compound 35-0.1 mg/kg group (n=8), compound 19-0.03 mg/kg+compound 35-0.3 mg/kg group (n=8), compound 19-0.1 mg/kg+compound 35-0.1 mg/kg group (n=8), and compound 19-0.1 mg/kg+compound 35-0.3 mg/kg group (n=8). The model group and drug-administered group were subjected to an incision surgery. During the surgery, the rats were anesthetized with isoflurane. An incision (1 cm long) passing through the skin and fascia was made with a No. 10 surgical blade in the middle of the left hind paw. The skin was sutured with a 3-0 sterile silk surgical suture. The injured site was disinfected with antibiotic ointment and iodophor. The animals were returned to their original place to recover overnight. After 24 hours, the drug was injected through the tail vein, and the blank control group and the model group were administrated with the corresponding solvents. […] The mechanical pain threshold of each group was measured by the Electronic Von Frey 30 minutes after the injection to evaluate the analgesic effect of the drug on the surgical incision pain and the intensity thereof.

Turning to `CNC(=O)NC1CCN(C(=O)[C@@H](CCCCN)NC(=O)[C@@H](CC(C)C)NC(=O)[C@@H](Cc2ccccc2)NC(=O)[C@H](N)Cc2ccccc2)CC1` [compound 35, (R)—N—((R)-6-Amino-1-(4-(3-methylureido)piperidin-1-yl)-1-oxohexan-2-yl)-2-((R)-2-((R)-2-amino-3-phenylpropanamido)-3-phenylpropanamido)-4-methylpentanamide], in data set [1] (rat, in vivo, iv, 0.3 mg/kg), the “increase of tenderness threshold compared with the model group” value amounted to 102.3% and the tenderness threshold is 22.42 g.
As to `CCO[C@H]1CC[C@H](NCC[C@@]2(c3ccccn3)CCOC3(CCCC3)C2)c2ccccc21` [compound 19, (1S,4S)-4-Ethoxy-N-(2-((R)-9-(pyridin-2-yl)-6-oxaspiro[4.5]decan-9-yl)ethyl)-1,2,3,4-tetrahydronaphthalen-1-amine], the “toxic effects (such as slow movement and stiffness of limbs in rats), compound 19 alone versus compound 35 alone” value in data set [2] is “more obvious toxic effects”. In data set [1] (compound 19 0.1 mg/kg i.v. alone, 30 minutes after administration), the “increase of tenderness threshold compared with the model group” value stood at 233.8%. Moreover, the tenderness threshold in data set [1] (compound 19 0.1 mg/kg i.v. alone, 30 minutes after administration, model group 11.08 g, blank control 37.68 g) was 36.99 g.
